# Results: patent publication US20220160680A1, “MICROORGANISM MIXTURES, MOLECULES DERIVED THEREFROM, AND METHODS OF USE THEREOF” (B. G. Negev Technologies and Applications Ltd., at …, priority 2018, published 2022)
# Entries after “also recorded” stand apart in the source; their conditions may differ.
# Assays:
# [1] = test system: Peritoneal macrophages; test: In vitro LPS stimulation of peritoneal macrophages, cytokine ELISA (24 hr); assay type: cell-based, mice; details: 100 μM, 0.1 μg/ml LPS
# Description: Peritoneal macrophages were harvested using the protocol as described previously (Zhang et al., 2008). Elicited macrophages were harvested from WT mice which had received a 2.5 ml intraperitoneal administration of 3% Brewer thioglycolate broth (Sigma, UK) 72 hr prior collection.
# Peritoneal macrophages cells (5×10^5/ml) were cultured with 0.1 μg/ml Lipopolysaccharides (LPS-Escherichia coli serotype 0127:B8, Sigma-Aldrich) and in the presence of 100 μM: tryptophol acetate, tyrosol acetate, dopamine HCl, caffeic acid, or combination of tryptophol acetate and tyrosol acetate, for 24 hr. Following culture, supernatants were collected and stored at −20° C. for the detection of the IL-6 cytokine. For IL-la detection, the inventors induced macrophages lysis by adding fresh RPMI medium and thawing three times.
# IL-la and IL-6 levels were measured in peritoneal exudate fluids and LPS-stimulated culture supernatants by ELISA. To detect the cytokines, a R&D ELISA kit (Catalog #MLA00 and DY406, respectively) was used as per the manufacturer's instructions. A standard curve was constructed using serial dilutions of purified IL-la or IL-6 starting at a concentration of 15 ng/ml.
# [2] = test system: V. cholerae VC1 (WT) and MM920; test: V. cholerae biofilm modulation (CLSM, crystal violet); assay type: cell-based, Vibrio cholerae; details: 900 nM CAI-1
# Description: The various pathogenic indicator strains used in this study were V. cholerae strain MM920 (ACqsA AluxQ), Vibrio harveyi strain MM30 (LuxS, Tn5). To initiate biofilm formation, bacteria was grown in the absence of the V. cholerae autoinducer 1 (CAI1). In addition, the bacteria were grown in presence of: 900 nM CAI1 (Vibrio Cholerae MM920), 900 nM CAI1, 200 μM Tryptophol acetate and 200 μM Tyrosol acetate, and 200 μM Tryptophol acetate and 200 μM Tyrosol acetate.
# Biofilms were grown under shaking conditions at 30° C. in 96-well plate (Thermo Scientific, Rochester, N.Y., USA). […] The stained cells were washed twice with PBS. Biofilm images were taken by CLSM (Plan-Apochromat 20×/0.8 M27, Zeiss LSM880, Germany).
# For static biofilm assay, overnight cultures of V. cholerae strain MM920 was diluted 1:10 in fresh LB medium containing a final concentration of 100 μM from each Tryptophol acetate and Tyrosol acetate or DMSO (up to 1%) as control. […] One in absence of the V. cholerae autoinducer (CAI-1) and the other one in presence of 900 nM CAI-1. Biofilms were grown under non-shaking conditions at 37° C. in 96-well plate (Thermo Scientific, Rochester, N.Y., USA). […] The stained cells were washed twice with PBS. Biofilm images were taken by CLSM (Plan-Apochromat 20×/0.8 M27, Zeiss LSM880, Germany).
# Biofilm matrixes of V. cholerae VC1 WT (FIGS. 23Ai and 23Aii), and the V. cholerae MM920 mutant (FIGS. 23Aiii and 23Aiv) were grown for 24 hours with or without tryptophol acetate in the growth medium, and stained using the BacLight® Dead/Live Kit to distinguish viable cells.
SMILES,Production of IL-6 [1],"Biofilm of V. cholerae MM920, autoinducer alone [2]"
O=C(O)/C=C/c1ccc(O)c(O)c1 [caffeic acid],comparable results; also recorded: dramatically reduced,–
"CCCCCCCCCC(=O)[C@@H](O)CC [CAI-1, reference compound]",–,disruption of biofilm integrity
